Test results taken from ChEMBL document CHEMBL2440076, “New triarylpyrazoles as broad-spectrum anticancer agents: design, synthesis, and biological evaluation” (Eur J Med Chem, 2013).

Key:
Type in all cases: functional
NCI-H460 = assay: Growth inhibition of human NCI-H460 cells assessed as cell growth at 5X10'-8 M after 48 hrs by sulforhodamine B assay; conditions: NCI-H460, 48 h, read-out: Activity
UO-31 [1] = assay: Growth inhibition of human UO31 cells assessed as cell growth at 5X10'-6 M after 48 hrs by sulforhodamine B assay; conditions: UO-31, 48 h, read-out: Activity
[2] = Growth inhibition of human HCC2998 cells assessed as cell growth at 3X10'-5 M after 48 hrs by sulforhodamine B assay; conditions: HCC 2998, 48 h, read-out: Activity
RPMI-8226 [3] = assay: Growth inhibition of human RPMI8226 cells assessed as cell growth at 3X10'-5 M after 48 hrs by sulforhodamine B assay; conditions: RPMI-8226, 48 h, read-out: Activity
NCI-H23 = assay: Growth inhibition of human NCI-H23 cells assessed as cell growth at 3X10'-7 M after 48 hrs by sulforhodamine B assay; conditions: NCI-H23, 48 h, read-out: Activity
NCI-H226 = assay: Growth inhibition of human NCI-H226 cells assessed as cell growth at 3X10'-5 M after 48 hrs by sulforhodamine B assay; conditions: NCI-H226, 48 h, read-out: Activity
CCRF-CEM = assay: Growth inhibition of human CCRF-CEM cells assessed as cell growth at 3X10'-6 M after 48 hrs by sulforhodamine B assay; conditions: read-out: Activity
M14 = assay: Growth inhibition of human M14 cells assessed as cell growth at 3X10'-6 M after 48 hrs by sulforhodamine B assay; conditions: M14, 48 h, read-out: Activity
SF-539 = assay: Growth inhibition of human SF539 cells assessed as cell growth at 3X10'-6 M after 48 hrs by sulforhodamine B assay; conditions: SF-539, 48 h, read-out: Activity
COLO 205 = assay: Growth inhibition of human COLO205 cells assessed as cell growth at 3X10'-8 M after 48 hrs by sulforhodamine B assay; conditions: COLO 205, 48 h, read-out: Activity
UO-31 [4] = assay: Growth inhibition of human UO31 cells assessed as cell growth at 3X10'-6 M after 48 hrs by sulforhodamine B assay; conditions: UO-31, 48 h, read-out: Activity
MDA-MB-468 = assay: Growth inhibition of human MDA-MB-468 cells assessed as cell growth at 3X10'-7 M after 48 hrs by sulforhodamine B assay; conditions: MDA-MB-468, 48 h, read-out: Activity
DU-145 = assay: Growth inhibition of human DU145 cells assessed as cell growth at 3X10'-7 M after 48 hrs by sulforhodamine B assay; conditions: DU-145, 48 h, read-out: Activity
MOLT-4 [5] = assay: Growth inhibition of human MOLT4 cells assessed as cell growth at 3X10'-9 M after 48 hrs by sulforhodamine B assay; conditions: MOLT-4, 48 h, read-out: Activity
K562 = assay: Growth inhibition of human K562 cells assessed as cell growth at 3X10'-8 M after 48 hrs by sulforhodamine B assay; conditions: K562, 48 h, read-out: Activity
[6] = Growth inhibition of human HCC2998 cells assessed as cell growth at 3X10'-6 M after 48 hrs by sulforhodamine B assay; conditions: HCC 2998, 48 h, read-out: Activity
MCF7 [7] = assay: Growth inhibition of human MCF7 cells assessed as cell growth at 3X10'-6 M after 48 hrs by sulforhodamine B assay; conditions: MCF7, 48 h, read-out: Activity
MOLT-4 [8] = assay: Growth inhibition of human MOLT4 cells assessed as cell growth at 3X10'-7 M after 48 hrs by sulforhodamine B assay; conditions: MOLT-4, 48 h, read-out: Activity
HOP-62 = assay: Growth inhibition of human HOP62 cells assessed as cell growth at 3X10'-6 M after 48 hrs by sulforhodamine B assay; conditions: HOP-62, 48 h, read-out: Activity
BT-549 [9] = assay: Growth inhibition of human BT549 cells assessed as cell growth at 3X10'-6 M after 48 hrs by sulforhodamine B assay; conditions: BT-549, 48 h, read-out: Activity
PC-3 = assay: Growth inhibition of human PC3 cells assessed as cell growth at 3X10'-7 M after 48 hrs by sulforhodamine B assay; conditions: PC-3, 48 h, read-out: Activity
UACC-257 = assay: Growth inhibition of human UACC257 cells assessed as cell growth at 3X10'-5 M after 48 hrs by sulforhodamine B assay; conditions: UACC-257, 48 h, read-out: Activity
ACHN = assay: Growth inhibition of human ACHN cells assessed as cell growth at 3X10'-5 M after 48 hrs by sulforhodamine B assay; conditions: read-out: Activity
A498 = assay: Growth inhibition of human A498 cells assessed as cell growth at 3X10'-7 M after 48 hrs by sulforhodamine B assay; conditions: A498, 48 h, read-out: Activity
U-251 = assay: Growth inhibition of human U251 cells assessed as cell growth at 3X10'-5 M after 48 hrs by sulforhodamine B assay; conditions: U-251, 48 h, read-out: Activity
A549 = assay: Growth inhibition of human A549/ATCC cells assessed as cell growth at 3X10'-6 M after 48 hrs by sulforhodamine B assay; conditions: A549, 48 h, read-out: Activity
SF-295 = assay: Growth inhibition of human SF295 cells assessed as cell growth at 3X10'-5 M after 48 hrs by sulforhodamine B assay; conditions: SF-295, 48 h, read-out: Activity
[10] = Growth inhibition of human NCI-ADR-RES cells assessed as cell growth at 3X10'-9 M after 48 hrs by sulforhodamine B assay; conditions: read-out: Activity
UACC-62 = assay: Growth inhibition of human UACC62 cells assessed as cell growth at 3X10'-7 M after 48 hrs by sulforhodamine B assay; conditions: UACC-62, 48 h, read-out: Activity
UO-31 [11] = assay: Growth inhibition of human UO31 cells assessed as cell growth at 3X10'-9 M after 48 hrs by sulforhodamine B assay; conditions: UO-31, 48 h, read-out: Activity
786-0 = assay: Growth inhibition of human 786-0 cells assessed as cell growth at 3X10'-7 M after 48 hrs by sulforhodamine B assay; conditions: 786-0, 48 h, read-out: Activity
BT-549 [12] = assay: Growth inhibition of human BT549 cells assessed as cell growth at 3X10'-5 M after 48 hrs by sulforhodamine B assay; conditions: BT-549, 48 h, read-out: Activity
MCF7 [13] = assay: Growth inhibition of human MCF7 cells assessed as cell growth at 3X10'-9 M after 48 hrs by sulforhodamine B assay; conditions: MCF7, 48 h, read-out: Activity
NCI-H522 = assay: Growth inhibition of human NCI-H522 cells assessed as cell growth at 3X10'-5 M after 48 hrs by sulforhodamine B assay; conditions: NCI-H522, 48 h, read-out: Activity
HL-60(TB) = assay: Growth inhibition of human HL-60(TB) cells assessed as cell growth at 3X10'-7 M after 48 hrs by sulforhodamine B assay; conditions: HL-60, 48 h, read-out: Activity
RPMI-8226 [14] = assay: Growth inhibition of human RPMI8226 cells assessed as cell growth at 3X10'-6 M after 48 hrs by sulforhodamine B assay; conditions: RPMI-8226, 48 h, read-out: Activity

| SMILES | growth at 0.05 µM (NCI-H460) | growth at 5 µM (UO-31 [1]) | growth at 30 µM [2] | growth at 30 µM (RPMI-8226 [3]) | growth at 0.3 µM (NCI-H23) | growth at 30 µM (NCI-H226) | growth at 3 µM (CCRF-CEM) | growth at 3 µM (M14) | growth at 3 µM (SF-539) | growth at 0.03 µM (COLO 205) | growth at 3 µM (UO-31 [4]) | growth at 0.3 µM (MDA-MB-468) | growth at 0.3 µM (DU-145) | growth at 0.003 µM (MOLT-4 [5]) | growth at 0.03 µM (K562) | growth at 3 µM [6] | growth at 3 µM (MCF7 [7]) | growth at 0.3 µM (MOLT-4 [8]) | growth at 3 µM (HOP-62) | growth at 3 µM (BT-549 [9]) | other results |
| --- | --- | --- | --- | --- | --- | --- | --- | --- | --- | --- | --- | --- | --- | --- | --- | --- | --- | --- | --- | --- | --- |
| COc1cc(-c2nn(-c3cccc(NC(=O)Nc4ccc(Cl)c(Cl)c4)c3)cc2-c2ccncc2)ccc1Cl | 102% | – | – | – | – | – | – | – | – | – | – | – | – | – | – | – | – | – | – | – | – |
| COc1cc(-c2nn(-c3cccc(NC(=O)Nc4cccc(C(F)(F)F)c4)c3)cc2-c2ccncc2)ccc1Cl | 102% | -15% | – | – | – | – | – | – | – | – | – | – | – | – | – | – | – | – | – | – | – |
| COc1cc(-c2nn(-c3cccc(NC(=O)Nc4ccc(Cl)c(C(F)(F)F)c4)c3)cc2-c2ccncc2)ccc1Cl | – | – | -48% | -7% | 97% | 3% | 3% | 4% | 33% | 103% | 3% | 81% | 103% | 104% | 105% | 26% | 5% | 90% | 22% | 40% | growth at 0.3 µM (PC-3): 80%; growth at 30 µM (UACC-257): -53%; growth at 30 µM (ACHN): -4%; growth at 0.3 µM (A498): 76%; growth at 30 µM (U-251): -58%; growth at 3 µM (A549): 11%; growth at 30 µM (SF-295): -70%; growth at 0.003 µM [10]: 104%; growth at 0.3 µM (UACC-62): 89%; growth at 0.003 µM (UO-31 [11]): 92%; growth at 0.3 µM (786-0): 101%; growth at 30 µM (BT-549 [12]): -41%; growth at 0.003 µM (MCF7 [13]): 94%; growth at 30 µM (NCI-H522): -21%; growth at 0.3 µM (HL-60(TB)): 110% |
| COc1cc(-c2nn(-c3cccc(NC(=O)Nc4cc(C(F)(F)F)cc(C(F)(F)F)c4)c3)cc2-c2ccncc2)ccc1Cl | 100% | -90% | – | – | – | – | – | – | – | – | – | – | – | – | – | – | – | – | – | – | – |
| COc1cc(-c2nn(-c3cccc(NC(=O)c4cccc(C(F)(F)F)c4)c3)cc2-c2ccncc2)ccc1Cl | 100% | 20% | – | – | – | – | – | – | – | – | – | – | – | – | – | – | – | – | – | – | – |
| O=C(Nc1cccc(-n2cc(-c3ccncc3)c(-c3ccc(Cl)c(O)c3)n2)c1)Nc1ccc(Cl)c(Cl)c1 | – | – | -27% | 3% | 102% | 12% | 10% | 14% | 27% | 97% | 19% | 76% | 105% | 98% | 102% | 47% | 8% | 101% | 35% | 28% | growth at 3 µM (RPMI-8226 [14]): 10%; growth at 0.3 µM (PC-3): 81%; growth at 30 µM (UACC-257): -24%; growth at 30 µM (ACHN): 1%; growth at 0.3 µM (A498): 94%; growth at 30 µM (U-251): -28%; growth at 3 µM (A549): 14%; growth at 0.003 µM [10]: 100%; growth at 0.3 µM (UACC-62): 91%; growth at 0.003 µM (UO-31 [11]): 86%; growth at 0.3 µM (786-0): 103%; growth at 30 µM (BT-549 [12]): -12%; growth at 0.003 µM (MCF7 [13]): 97%; growth at 30 µM (NCI-H522): -13% |
| O=C(Nc1cccc(-n2cc(-c3ccncc3)c(-c3ccc(Cl)c(O)c3)n2)c1)Nc1cccc(C(F)(F)F)c1 | – | – | 1% | 5% | 96% | 20% | 25% | 21% | 54% | 99% | 37% | 81% | 97% | 97% | 92% | 76% | 26% | 97% | 70% | 79% | growth at 3 µM (RPMI-8226 [14]): 25%; growth at 0.3 µM (PC-3): 82%; growth at 30 µM (UACC-257): -18%; growth at 30 µM (ACHN): 7%; growth at 0.3 µM (A498): 80%; growth at 30 µM (U-251): -48%; growth at 3 µM (A549): 24%; growth at 30 µM (SF-295): -53%; growth at 0.003 µM [10]: 99%; growth at 0.3 µM (UACC-62): 92%; growth at 0.003 µM (UO-31 [11]): 89%; growth at 0.3 µM (786-0): 99%; growth at 30 µM (BT-549 [12]): -18%; growth at 0.003 µM (MCF7 [13]): 91%; growth at 30 µM (NCI-H522): -13% |
| O=C(Nc1cccc(-n2cc(-c3ccncc3)c(-c3ccc(Cl)c(O)c3)n2)c1)Nc1cc(C(F)(F)F)cc(C(F)(F)F)c1 | 101% | -45% | – | – | – | – | – | – | – | – | – | – | – | – | – | – | – | – | – | – | – |
| O=C(Nc1cccc(-n2cc(-c3ccncc3)c(-c3ccc(Cl)c(O)c3)n2)c1)c1ccc(N2CCOCC2)c(C(F)(F)F)c1 | – | 25% | – | – | – | – | – | – | – | – | – | – | – | – | – | – | – | – | – | – | – |
